Assay results as given in ChEMBL document CHEMBL1130994, “3-trifluoromethylcarbacephems: synthesis of broad spectrum antibacterial compounds” (1998).
In brackets after ≈: the same amount, converted by molar mass.

Legend:
Assay type in all cases: functional
Staphylococcus aureus [1] = assay: Compound was evaluated for inhibitory activity against X1.1 Staphylococcus aureus penicillin sensitive
Klebsiella pneumoniae [2] = assay: Compound was evaluated for inhibitory activity against KAE Klebsiella pneumoniae
Escherichia coli [3] = assay: Compound was evaluated for inhibitory activity against EC14 Escherichia coli sensitive
Staphylococcus aureus [4] = assay: Compound was evaluated for inhibitory activity against S13E Staphylococcus aureus methicillin resistant penicillin resistant macrolide sensitive (PBP2a producer)
Serratia [5] = assay: Compound was evaluated for inhibitory activity against X99 Serratia
Enterococcus faecalis = assay: Compound was evaluated for inhibitory activity against 2041 Enterococcus faecalis Gp.D streptococcus penicillin susceptible
Morganella morganii = assay: Compound was evaluated for inhibitory activity against PR15 Morganella morganii
Streptococcus pyogenes = assay: Compound was evaluated for inhibitory activity against C203 Streptococcus pyogenes Gp.A
Staphylococcus aureus [6] = assay: Compound was evaluated for inhibitory activity against X400S Staphylococcus aureus methicillin resistant and macrolide resistant
Citrobacter = assay: Compound was evaluated for inhibitory activity against CF17 Citrobacter
Klebsiella pneumoniae [7] = assay: Compound was evaluated for inhibitory activity against X26 Klebsiella pneumoniae
Escherichia coli [8] = assay: Compound was evaluated for inhibitory activity against TEM Escherichia coli beta-lactamase
Serratia [9] = assay: Compound was evaluated for inhibitory activity against SE3 Serratia
Haemophilus influenzae [10] = assay: Compound was evaluated for inhibitory activity against 76 Haemophilus influenzae beta-lactamase
Streptococcus pneumoniae = assay: Compound was evaluated for inhibitory activity against Park S Streptococcus pneumoniae
Haemophilus influenzae [11] = assay: Compound was evaluated for inhibitory activity against C.L Haemophilus influenzae ampicillin sensitive
Klebsiella aerogenes [12] = assay: Compound was evaluated for inhibitory activity against EB17 Enterobacter aerogenes
Salmonella = assay: Compound was evaluated for inhibitory activity against X514 Salmonella
Acinetobacter = assay: Compound was evaluated for inhibitory activity against AC12 Acinetobacter
Providencia stuartii = assay: Compound was evaluated for inhibitory activity against PR33 Providencia stuartii
Enterobacter cloacae [13] = assay: Compound was evaluated for inhibitory activity against 265a Enterobacter cloacae beta-lactamase
Klebsiella aerogenes [14] = assay: Compound was evaluated for inhibitory activity against C32 Enterobacter aerogenes
Providencia rettgeri = assay: Compound was evaluated for inhibitory activity against C24 Providencia rettgeri
Enterobacter cloacae [15] = assay: Compound was evaluated for inhibitory activity against EB5 Enterobacter cloacae

SMILES	MIC (Staphylococcus aureus [1]) [µM]	MIC (Klebsiella pneumoniae [2]) [µM]	MIC (Escherichia coli [3]) [µM]	MIC (Staphylococcus aureus [4]) [µM]	MIC (Serratia [5]) [µM]	MIC (Enterococcus faecalis) [µM]	MIC (Morganella morganii) [µM]	MIC (Streptococcus pyogenes) [µM]	MIC (Staphylococcus aureus [6]) [µM]	MIC (Citrobacter) [µM]	MIC (Klebsiella pneumoniae [7]) [µM]	MIC (Escherichia coli [8]) [µM]	MIC (Serratia [9]) [µM]	MIC (Haemophilus influenzae [10]) [µM]	MIC (Streptococcus pneumoniae) [µM]	MIC (Haemophilus influenzae [11]) [µM]	MIC (Klebsiella aerogenes [12]) [µM]	MIC (Salmonella) [µM]	MIC (Acinetobacter) [µM]	MIC (Providencia stuartii) [µM]	other results
N[C@@H](C(=O)N[C@@H]1C(=O)N2C(C(=O)O)=C(C(F)(F)F)CC[C@H]12)c1ccc(O)c(Cl)c1	1 (≈ 0.434 µg/mL)	4 (≈ 1.74 µg/mL)	0.5 (≈ 0.217 µg/mL)	8 (≈ 3.47 µg/mL)	4 (≈ 1.74 µg/mL)	4 (≈ 1.74 µg/mL)	4 (≈ 1.74 µg/mL)	0.03 (≈ 0.013 µg/mL)	8 (≈ 3.47 µg/mL)	4 (≈ 1.74 µg/mL)	0.13 (≈ 0.0564 µg/mL)	1 (≈ 0.434 µg/mL)	16 (≈ 6.94 µg/mL)	0.5 (≈ 0.217 µg/mL)	0.06 (≈ 0.026 µg/mL)	0.5 (≈ 0.217 µg/mL)	1 (≈ 0.434 µg/mL)	0.125 (≈ 0.0542 µg/mL)	32 (≈ 13.9 µg/mL)	4 (≈ 1.74 µg/mL)	MIC (Enterobacter cloacae [13]): 16 µM (≈ 6.94 µg/mL); MIC (Klebsiella aerogenes [14]): 2 µM (≈ 0.868 µg/mL); MIC (Providencia rettgeri): 4 µM (≈ 1.74 µg/mL); MIC (Enterobacter cloacae [15]): 8 µM (≈ 3.47 µg/mL)
CS(=O)(=O)Nc1cccc([C@@H](N)C(=O)N[C@@H]2C(=O)N3C(C(=O)O)=C(C(F)(F)F)CC[C@H]23)c1	2 (≈ 0.953 µg/mL)	16 (≈ 7.62 µg/mL)	0.5 (≈ 0.238 µg/mL)	16 (≈ 7.62 µg/mL)	16 (≈ 7.62 µg/mL)	16 (≈ 7.62 µg/mL)	8 (≈ 3.81 µg/mL)	0.06 (≈ 0.0286 µg/mL)	16 (≈ 7.62 µg/mL)	16 (≈ 7.62 µg/mL)	0.5 (≈ 0.238 µg/mL)	1 (≈ 0.476 µg/mL)	32 (≈ 15.2 µg/mL)	2 (≈ 0.953 µg/mL)	0.13 (≈ 0.0619 µg/mL)	2 (≈ 0.953 µg/mL)	4 (≈ 1.91 µg/mL)	2 (≈ 0.953 µg/mL)	64 (≈ 30.5 µg/mL)	8 (≈ 3.81 µg/mL)	MIC (Enterobacter cloacae [13]): 32 µM (≈ 15.2 µg/mL); MIC (Klebsiella aerogenes [14]): 2 µM (≈ 0.953 µg/mL); MIC (Providencia rettgeri): 16 µM (≈ 7.62 µg/mL); MIC (Enterobacter cloacae [15]): 16 µM (≈ 7.62 µg/mL)
N[C@@H](C(=O)N[C@@H]1C(=O)N2C(C(=O)O)=C(C(F)(F)F)CC[C@H]12)c1cccc(Br)c1	1 (≈ 0.462 µg/mL)	16 (≈ 7.4 µg/mL)	4 (≈ 1.85 µg/mL)	8 (≈ 3.7 µg/mL)	128 (≈ 59.2 µg/mL)	8 (≈ 3.7 µg/mL)	16 (≈ 7.4 µg/mL)	0.13 (≈ 0.0601 µg/mL)	16 (≈ 7.4 µg/mL)	32 (≈ 14.8 µg/mL)	0.25 (≈ 0.116 µg/mL)	4 (≈ 1.85 µg/mL)	128 (≈ 59.2 µg/mL)	1 (≈ 0.462 µg/mL)	0.13 (≈ 0.0601 µg/mL)	0.5 (≈ 0.231 µg/mL)	32 (≈ 14.8 µg/mL)	4 (≈ 1.85 µg/mL)	16 (≈ 7.4 µg/mL)	16 (≈ 7.4 µg/mL)	MIC (Enterobacter cloacae [13]): 64 µM (≈ 29.6 µg/mL); MIC (Klebsiella aerogenes [14]): 16 µM (≈ 7.4 µg/mL); MIC (Providencia rettgeri): 16 µM (≈ 7.4 µg/mL); MIC (Enterobacter cloacae [15]): 64 µM (≈ 29.6 µg/mL)
N[C@@H](C(=O)N[C@@H]1C(=O)N2C(C(=O)O)=C(C(F)(F)F)CC[C@H]12)c1ccc(Cl)c(Cl)c1	0.5 (≈ 0.226 µg/mL)	64 (≈ 28.9 µg/mL)	32 (≈ 14.5 µg/mL)	8 (≈ 3.62 µg/mL)	128 (≈ 57.9 µg/mL)	16 (≈ 7.24 µg/mL)	32 (≈ 14.5 µg/mL)	0.02 (≈ 0.00904 µg/mL)	64 (≈ 28.9 µg/mL)	128 (≈ 57.9 µg/mL)	1 (≈ 0.452 µg/mL)	16 (≈ 7.24 µg/mL)	128 (≈ 57.9 µg/mL)	2 (≈ 0.904 µg/mL)	0.13 (≈ 0.0588 µg/mL)	2 (≈ 0.904 µg/mL)	128 (≈ 57.9 µg/mL)	32 (≈ 14.5 µg/mL)	128 (≈ 57.9 µg/mL)	32 (≈ 14.5 µg/mL)	MIC (Enterobacter cloacae [13]): 128 µM (≈ 57.9 µg/mL); MIC (Klebsiella aerogenes [14]): 128 µM (≈ 57.9 µg/mL); MIC (Providencia rettgeri): 64 µM (≈ 28.9 µg/mL); MIC (Enterobacter cloacae [15]): 128 µM (≈ 57.9 µg/mL)
N[C@@H](C(=O)N[C@@H]1C(=O)N2C(C(=O)O)=C(C(F)(F)F)CC[C@H]12)c1ccccc1	0.5 (≈ 0.192 µg/mL)	4 (≈ 1.53 µg/mL)	0.5 (≈ 0.192 µg/mL)	8 (≈ 3.07 µg/mL)	8 (≈ 3.07 µg/mL)	16 (≈ 6.13 µg/mL)	32 (≈ 12.3 µg/mL)	0.03 (≈ 0.0115 µg/mL)	32 (≈ 12.3 µg/mL)	4 (≈ 1.53 µg/mL)	0.25 (≈ 0.0958 µg/mL)	1 (≈ 0.383 µg/mL)	16 (≈ 6.13 µg/mL)	1 (≈ 0.383 µg/mL)	0.25 (≈ 0.0958 µg/mL)	1 (≈ 0.383 µg/mL)	2 (≈ 0.767 µg/mL)	0.25 (≈ 0.0958 µg/mL)	32 (≈ 12.3 µg/mL)	4 (≈ 1.53 µg/mL)	MIC (Enterobacter cloacae [13]): 8 µM (≈ 3.07 µg/mL); MIC (Klebsiella aerogenes [14]): 4 µM (≈ 1.53 µg/mL); MIC (Providencia rettgeri): 8 µM (≈ 3.07 µg/mL); MIC (Enterobacter cloacae [15]): 4 µM (≈ 1.53 µg/mL)
